According to patent US20260124158A1, “COMPOSITIONS AND METHODS TO REDUCE BIOLOGICAL AGE OF AN ADULT ANIMAL” (Société des Produits Nestlé S.A., priority 2022, published 2026):

Columns and labels:
[1] = tested on: muscle gastrocnemius of old mice; test: Muscle biological age by DNA methylation, pan tissue clock, in old mice; assay type: in vivo, mouse
Excerpt: (§1) All animal experiments comply with the International Guiding Principles for Biomedical Research Involving Animals developed by the Council for International Organizations of Medical Sciences and the following guidelines for animal welfare. 24 old mice aged 18 months and 12 young mice aged 6 months were kept in a temperature-and humidity-controlled environment with a 12:12-h light-dark cycle. Mice had access to nesting and enrichment materials and were provided with ad libitum access to water and food.
(§2) Old mice were split in two groups and received either 20 mg/kg body weight of thymol or vehicle by gavage daily for 12 weeks, whereas young mice received the vehicle only (n=12). Animals found dead or euthanized at the humane endpoint for pain or physical distress, have been excluded from the analysis. At the end of the treatment, mice were euthanized with isoflurane after 2-hours fasting. Muscle gastrocnemius has been dissected samples and snap frozen in liquid nitrogen and stored at −80° C.
(§3) DNA extraction was performed on 100 mg of muscle using QIAGEN DNeasy Blood and Tissue kit (Cat. No: 69506) and following manufacturer recommendations. DNA was quantified using the DropSense technology (from Unchained Labs). […]
(§4) To calculate biological age, raw data have been analysed using algorithms (clocks) developed by the Clock Foundation. […] Data were plotted and analysed using GraphPad Prism 9. […]

[2] = tested on: muscle gastrocnemius of old mice; test: Muscle biological age by DNA methylation, intervention muscle clock, in old mice; assay type: in vivo, mouse; conditions: 20 mg/kg/day for 12 weeks
Excerpt: as §1, §2, §3, §4

In the case of `Cc1ccc(C(C)C)c(O)c1` [thymol], the “reduction of muscle biological age measured with the pan tissue clock” value ([1]; 20 mg/kg/day by gavage daily for 12 weeks, vs old vehicle) is reported as 20.3%, the “effect on biological age in old mice” value ([1]; 20 mg/kg/day for 12 weeks) is reported as “significantly reduced biological age in old mice” and the “effects on biological age using the interventions muscle clock” value [2] is reported as “confirmed”.
